In US8906895B2, “Optically active dibenzylamine derivative, and method for preparing thereof” (Kowa Company, Ltd., priority 2010, dated 2014):
Marks after values point to notes of the source that are not given here.

Key:
LDL receptor (LDLR) = experiment: LDL receptor amount in HepG2 cells by Western blotting; assay type: cell-based, human; details: 48 hours; for LDL receptor amount (Relative value based on value of control taken as 1): 10 μM in culture medium, corrected by β-actin; for LDL receptor amount-increasing action in comparison with the control (in words): 10 μM
Protocol: (§1) Influence of a test compound on amount of PCSK9 protein and amount of LDL receptor was studied by adding the test compound to human hepatoma cell strain, HepG2 cells, and measuring amount of PCSK9 protein and amount of LDL receptor (LDLR) by Western blotting after culture for 48 hours.
(§2) Specifically, the HepG2 cells were inoculated on a 6-well plate at a density of 5×10^5 cells/well and cultured overnight, and a test compound dissolved in dimethyl sulfoxide (DMSO), or only DMSO was added to the culture medium in a 1/1000-fold amount. The cells were cultured at 37° C. for 48 hours in a CO2 incubator, the culture was added with 100 μL of the RIPA buffer (50 mM Tris-HCl, pH 7.8, 150 mM NaCl, 1% NP-40, 0.5% sodium deoxycholate, 0.1% SDS, proteinase inhibitor) to disrupt the cells, and proteins were extracted. The extracted proteins were centrifuged at 10000×g, the supernatant was collected, and added with an SDS sample buffer (60 mM Tris-HCl, pH 6.8, 2% SDS, 10% glycerol, 3% mercaptoethanol), and the mixture was subjected to separation by SDS-PAGE (SDS-polyacrylamide gel electrophoresis) using 8% acrylamide gel. After completion of the separation, the proteins were fixed on a nitrocellulose membrane by using iBlot Gel Transfer System (Invitrogen), and blocked by using Block Ace (DS Pharma Biomedical, Catalog No. UK-B 80).
(§3) Detection of the PCSK9 protein, LDLR, and β-actin protein, and measurement of the amounts thereof were performed by labeling the proteins on the membrane using Anti-PCSK9 (Cayman, Catalog No. 1000718), Anti-LDLR (BioVision, Catalog No. 3839-100), and Anti-β-Actin (Sigma, Catalog No. A5316), respectively, as the primary antibody, and Anti-Rabbit IgG-HRP (Sigma, Catalog No. A0545) or Anti-Mouse IgG-HRP (Sigma, Catalog No. A4416) as the secondary antibody, reacting a chemiluminescence reagent (substrate of HRP) with the secondary antibody on the membrane, and then measuring signal intensity using Lumino Image Analyzer LAS-3000 (Fuji Photo Film). The resulting signal intensity wag numprirally evaluated by using image analysis software, Science Lab 2002 Multi Gauge (Fuji Photo Film).
(§4) The resulting measured values of the PCSK9 protein amount and the LDL receptor amount were corrected between those obtained for the sample added with a test compound and the control sample (sample added with only DMSO) using the β-actin protein amounts as index. The corrected PCSK9 protein amount and LDL receptor amount of the test compound addition sample were represented by relative values based on the PCSK9 protein amount and LDL receptor amount of the control sample, respectively, which were taken as 1.

PCSK9 protein = PCSK9 protein amount in HepG2 cells by Western blotting; assay type: cell-based, human; details: 48 hours; for PCSK9 protein amount (Relative value based on value of control taken as 1): 10 μM in culture medium, corrected by β-actin; for PCSK9 protein amount-reducing action in comparison with the control (in words): 10 μM
Protocol: as §1, §2, §3, §4

[1] = system: human HMG-CoA reductase mRNA; experiment: HMG-CoA reductase mRNA expression in HepG2 cells by quantitative real-time PCR; assay type: cell-based; details: 10 μM, 8 hours; for HMG-CoA reductase mRNA expression amount (Relative value based on average value of control taken as 1): average ± standard error, 3 samples
Protocol: A test compound was added to the HepG2 cells and the cells were cultured for 8 hours, and then HMG-CoA reductase mRNA expression amount was measured by quantitative real-time PCR.
Specifically, the HepG2 cells were inoculated on a 24-well plate at a density of 2×10^5 cells/well and cultured overnight, and then a test compound dissolved in dimethyl sulfoxide (DMSO), or only DMSO was added to the culture medium in a 1/1000-fold amount. The cells were cultured at 37° C. for 8 hours in a CO2 incubator, and then added with 500 μL of ISOGEN (NIPPON GENE, Catalog No. 31-02501), and the total RNA was extracted. cDNA was synthesized from the extracted total RNA by using High Capacity cDNA Reverse Transcription Kit (Applied Biosystems, Catalog No. 4368813). Expression amount of human HMG-CoA reductase mRNA was measured by quantitative real-time PCR using a set of the following primers: 5′-[…]-3′ (SEQ ID No:1) and 5′-[…]-3′ (SEQ ID No:2) specific to human HMG-CoA reductase, and Fast SYBR Green Master Mix (Applied Biosystems, Catalog No. 4385614). As the measurement apparatus, 7900HT Fast Realtime PCR System was used.
The resulting measured values of the HMG-CoA reductase mRNA expression amount were corrected between those obtained for test compound addition samples (3 samples for each compound) and control samples (sample added with only DMSO, 3 samples) using the β-actin mRNA expression amounts as index. The corrected HMG-CoA reductase mRNA expression amount of the test compound addition sample was represented with a relative value (average±standard error) based on average of the HMG-CoA reductase mRNA expression amounts of the control samples, which was taken as 1.

human PCSK9 mRNA = experiment: PCSK9 mRNA expression in HepG2 cells by quantitative real-time PCR; assay type: cell-based; details: 10 μM, 24 hours
Protocol: Specifically, the HepG2 cells were inoculated on a 24-well plate at a density of 2×10^5 cells/well and cultured overnight, and then a test compound dissolved in dimethyl sulfoxide (DMSO), or only DMSO was added to the culture medium in a 1/1000-fold amount. The cells were cultured at 37° C. for 24 hours in a CO2 incubator, and then added with 500 μl of ISOGEN (NIPPON GENE, Catalog No. 31-02501), and the total RNA was extracted. cDNA was synthesized from the extracted total RNA by using High Capacity cDNA Reverse Transcription Kit (Applied Biosystems, Catalog No. 4368813). Expression amount of human PCSK9 mRNA was measured by quantitative real-time PCR using primers specific to human PCSK9 (Kourimate S. et al., J. Biol. Chem., Vol. 283, p9666), and Fast SYBR Green Master Mix (Applied Biosystems, Catalog No. 4385614). As the measurement apparatus, 7900HT Fast Realtime PCR System was used.
The resulting measured values of the PCSK9 mRNA expression amount were corrected between those obtained for test compound addition samples (3 samples) and control samples (sample added with only DMSO, 3 samples) using the β-actin mRNA expression amounts as index. […]

[2] = system: LDL cholesterol in the plasma; experiment: Blood LDL cholesterol-reducing action in normal hamsters; assay type: in vivo, male Syrian hamsters; details: for LDL cholesterol-reducing rate: based on control group; for Average LDL cholesterol amount ± standard deviation: plasma 4 hours after final administration, control 50 ± 3.0
Source text: (S)-trans-{4-[({2-[({1-[3,5-Bis(trifluoromethyl)phenyl]ethyl}{5-[2-(methylsulfonyl)ethoxy]pyrimidin-2-yl}amino)methyl]-4-(trifluoromethyl)phenyl}(ethyl)amino)methyl]cyclohexyl}acetic acid ((S)-isomer compound (III), optical purify: >99% ee) was suspended in a 0.5% methylcellulose solution, and orally administered repeatedly to normal hamsters (male Syrian hamsters) once a day over 14 days by using a metal probe. Four hours after the final administration, blood was collected, and plasma was obtained. Lipoproteins in the plasma were analyzed by automatic measurement using an HPLC system based on the post-labeling method according to the method described in J. Lipid. Res., 43, p805-814. Specifically, 15 μL of a plasma sample was diluted 10 times with PBS containing 1 mM EDTA, and 80 μl of the diluted sample was injected into a gel filtration column (Superose 6 column (column size: 10×300 mm), GE Healthcare Bioscience) connected to an HPLC system (liquid feeding unit: Shimadzu LC-20A System, Shimadzu). Separation was performed at a flow rate of 0.5 mL/minute and a column temperature of 40° C. by using PBS containing 1 mM EDTA as a running buffer. A cholesterol-measuring reagent (Cholesterol E-Test Wako, Wako Pure Chemical Industries) was mixed with the eluate from the column at a flow rate of 0.25 mL/minute, and the reaction was performed at 40° C. in a reaction coil (0.5 mm×15 m) with feeding the eluate. Cholesterols in the eluate obtained from the reaction coil were detected at a wavelength of 600 nm. Area ratio of the LDL fraction based on the resulting total peak area of cholesterols was calculated, and the total cholesterol amount measured beforehand by using Cholesterol E-Test Wako was multiplied by the area ratio of the LDL fraction to calculate LDL cholesterol amount.
Six normal hamsters were used for each of the control group (0.5% methylcellulose solution administration group) and the test compound administration groups (10 mg/kg body weight and 30 mg/kg body weight of (S)-isomer compound (III) administration groups). The hamsters were divided into the groups beforehand on the basis of the total plasma cholesterol value.
The symbols * and *** in Table 3 means that there were significant differences at a significance level of 5% or less (p<0.05) and a significance level of 0.1% or less (p<0.001), respectively, as determined by a multi-group comparison test (Dunnett's multiple comparison test) performed between the control group and each of the test compound administration groups. Further, the LDL cholesterol amount-reducing rate of the test compound administration group based on the control group was calculated in accordance with the following equation 1 as an LDL cholesterol-reducing rate, and indicated in terms of percentage. LDL cholesterol-reducing rate(%)=[(Average of LDL cholesterol amount of control group−Average of LDL cholesterol amount of compound administration group)/Average of LDL cholesterol amount of control group]×100 (Equation 1)

[3] = 10 mg/kg orally once a day over 14 days
[4] = 30 mg/kg orally once a day over 14 days

| Compound | LDL receptor amount (Relative value based on value of control taken as 1) (LDL receptor (LDLR)) | LDL receptor amount-increasing action in comparison with the control (in words) (LDL receptor (LDLR)) | PCSK9 protein amount (Relative value based on value of control taken as 1) (PCSK9 protein) | PCSK9 protein amount-reducing action in comparison with the control (in words) (PCSK9 protein) | Effect on HMG-CoA reductase mRNA expression amount in comparison with the control (in words) [1] | HMG-CoA reductase mRNA expression amount (Relative value based on average value of control taken as 1) [1] | Effect on expression amount of PCSK9 mRNA in comparison with the control (in words) (human PCSK9 mRNA) | PCSK9 mRNA expression amount (Relative value based on average value of control taken as 1) (human PCSK9 mRNA; average ± standard error, 3 samples) | LDL cholesterol-reducing rate [2, 3] [%] | Average LDL cholesterol amount ± standard deviation [2, 3] | LDL cholesterol-reducing rate [2, 4] [%] | Average LDL cholesterol amount ± standard deviation [2, 4] | Blood LDL cholesterol-reducing action (in words) ([2]; normal hamsters, 10 and 30 mg/kg orally, 14 days) |
| --- | --- | --- | --- | --- | --- | --- | --- | --- | --- | --- | --- | --- | --- |
| CCN(C[C@H]1CC[C@H](CC(=O)O)CC1)c1ccc(C(F)(F)F)cc1CN(c1ncc(OCCS(C)(=O)=O)cn1)C(C)c1cc(C(F)(F)F)cc(C(F)(F)F)c1 (mixture of isomers) [Racemate compound (I), trans-{4-[({2-[({1-[3,5-Bis(trifluoromethyl)phenyl]ethyl}{5-[2-(methylsulfonyl)ethoxy]pyrimidin-2-yl}amino)methyl]-4-(trifluoromethyl)phenyl}(ethyl)amino)methyl]cyclohexyl}acetic acid, reference compound] | 0.73 | almost no such actions | 0.68 | almost no such actions | remarkably reduced | 0.37 ± 0.02 | – | – | – | – | – | – | – |
| CCN(C[C@H]1CC[C@H](CC(=O)O)CC1)c1ccc(C(F)(F)F)cc1CN(c1ncc(OCCSC)cn1)C(C)c1cc(C(F)(F)F)cc(C(F)(F)F)c1 (relative stereo) [trans-{4-[({2-[({1-[3,5-Bis(trifluoromethyl)phenyl]ethyl}{5-[2-(methylthio)ethoxy]pyrimidin-2-yl}amino)methyl]-4-(trifluoromethyl)phenyl}(ethyl)amino)methyl]cyclohexyl}acetic acid] | – | – | – | – | remarkably reduced | 0.25 ± 0.03 | – | – | – | – | – | – | – |
| CCN(C[C@H]1CC[C@H](CC(=O)O)CC1)c1ccc(C(F)(F)F)cc1CN(c1ncc(OCCS(C)(=O)=O)cn1)[C@H](C)c1cc(C(F)(F)F)cc(C(F)(F)F)c1 [(R)-Isomer compound (II), (R)-trans-{4-[({2-[({1-[3,5-Bis(trifluoromethyl)phenyl]ethyl}{5-[2-(methylsulfonyl)ethoxy]pyrimidin-2-yl}amino)methyl]-4-(trifluoromethyl)phenyl}(ethyl)amino)methyl]cyclohexyl}acetic acid] | 0.93 | almost no such actions | 1.05 | almost no such actions | – | – | – | – | – | – | – | – | – |
| CCN(C[C@H]1CC[C@H](CC(=O)O)CC1)c1ccc(C(F)(F)F)cc1CN(c1ncc(OCCS(C)(=O)=O)cn1)[C@@H](C)c1cc(C(F)(F)F)cc(C(F)(F)F)c1 [(S)-Isomer compound (III), (S)-trans-{4-[({2-[({1-[3,5-Bis(trifluoromethyl)phenyl]ethyl}{5-[2-(methylsulfonyl)ethoxy]pyrimidin-2-yl}amino)methyl]-4-(trifluoromethyl)phenyl}(ethyl)amino)methyl]cyclohexyl}acetic acid] | 1.73 | remarkably increased | 0.28 | markedly reduced | – | – | remarkably reduced | 0.18 ± 0.13 | 20.0 | 40 ± 2.6* mg/dl | 38.0 | 31 ± 2.6*** mg/dl | superior blood LDL cholesterol-reducing action |
